Results from PMC12022980, “Rational Design of PROTAC Linkers Featuring Ferrocene as a Molecular Hinge to Enable Dynamic Conformational Changes” (Journal of the American Chemical Society, 2025).

Experiment: HBD acidity NMR score (ANMR), amide NH shifts in CDCl3 vs DMSO-d6
Type: physicochemical
From the text: With this premise, we performed NMR studies to quantify the HBD solvent exposure of the amide protons using the HBD Acidity NMR score (ANMR)[47] and variable temperature studies (vt-NMR).[48] To note, although vt-NMR has originally been developed and applied to the study of peptides,[49] it is, together with the ANMR value, a well-established method for studying the intramolecular hydrogen bonding (IMHB) patterns in systems such as PROTACs[10],[12],[18],[26] as well as in ferrocene structures.[29],[50]−[53]
Considering the assumed flexibility of the ferrocene moiety, we anticipated the amide protons in AS4 next to the ferrocene moiety, i.e., N(3)-H and N(4)-H, to show greater shielding effects in CDCl3 as compared to DMSO-d6, consistently with a preference for the cis conformation. In contrast, in the presence of a strong hydrogen-bond acceptor solvent such as DMSO-d6, the intercalation of polar solvent molecules is likely to disrupt the IMHB, favoring an expanded trans conformation[50] of the substituent chains (Figure 4A). An initial analysis of the ^1H NMR spectra was obtained on samples in deuterated CDCl3 and DMSO-d6. […]
The chemical shift difference between the two solvents (Δδ) can be converted into hydrogen bond acidity (ANMR) for a quantitative assessment of IMHB. […]
Standard NMR experiments were performed at 298 K, while variable-temperature NMR experiments recorded spectra across a temperature range from 298 K to 328 K allowing a sufficient temperature equilibration time (10–15 min) before signal acquisition. All NOESY spectra for conformational analysis as well as the assignment spectra in methanol-d 4 were recorded on a 500 MHz Bruker Avance III equipped with a 5 mm QCI cryogenic probe. NOESY spectra were obtained from a sample at 1.25 mM in CDCl3 and 1.25 mM in methanol-d4, recorded at 298 K, using 16 transients, 1024 points in the direct dimension and 512 points in the indirect dimension, a relaxation delay of 1.5 s, and a mixing time of 700 ms. All other spectra used for signal assignment in CDCl3 were recorded on 500 MHz Bruker Avance NEO with a BBFO SmartProbe. […]

Cc1ncsc1-c1ccc(CNC(=O)[C@@H]2C[C@@H](O)CN2C(=O)[C@@H](NC(=O)CCCCCOCCOCCCCCC(=O)Nc2cccc3c2C(=O)N(C2CCC(=O)NC2=O)C3=O)C(C)(C)C)cc1 (stereo partly drawn) [14a]
ANMR N(1)-H: 0.16 | Δδ N(1)-H: 1.16 ppm | Δδ N(2)-H: 0.15 ppm
